Reference: patent publication US20250230124A1, “SMALL MOLECULE INHIBITORS OF ID PROTEINS” (MEMORIAL SLOAN-KETTERING CANCER CENTER, priority 2022, published 2025)

How the values were obtained:
[1] = tested on: CD31-positive microvessels in Matrigel plugs; test: Anti-angiogenic activity in VEGF-165 and FGF-2 treated Matrigel plugs; format: in vivo, mouse; details: for protection from new blood vessel formation: compared to vehicle control animals; for presence of endothelial cells in Matrigel plugs: mouse, in vivo
Description: VEGF-165 and FGF-2 treated Matrigel plugs will be implanted on Day 0 into C57BL/6 mice. Mice will be treated with either vehicle, AGX51, AGX-A, or a compound of the present technology. The AGX51, AGX-A, and compound of the present technology will be provided either in the plugs (25 μg/mg) or by daily ip treatment (30 or 100 mg/kg) for 10 days. Plugs will be harvested on Day 10, fixed and paraffin embedded. Three sections ([…] thickness) of each plug will be stained with an anti-CD31 antibody and counterstained with hematoxylin and eosin stain. CD31-positive microvessels will be counted for one entire cross-section per plug and the average micro-vessel density±SD vessels will be determined. Student's t-test will be used for statistical analysis.

DU145 cells = test: Prostate cancer cell morphology, growth and death; format: cell-based; details: for outcome of treatment of DU145 cells: after six days; for effect on DU145 cells (health, proliferation): after three days
Description: Prostate cancer cell lines DU145 and PC3 (in 10% BCS) will be cultured in Ham's F12 (Gibco, Carlsbad, Calif.) medium containing 10% BCS (Hyclone, Logan, Utah) and appropriate antibiotics (pen/strep, fungizaone, and gentamycin (Invitrogen Inc., Carlsbad, Calif.). All cells will be cultured at 37° C. in a fully humidified atmosphere containing 5% CO2.
At 50% confluence, the cells will be treated with either 100 μM DMSO, AGX51, AGX-A, or a compound of the present technology. The cell morphology and growth will be monitored daily for 1 week by microscopy for changes in morphology or cell death. Apoptosis will be determined by measuring caspase 3 and caspase 7 activities using the Caspase-Glo 3/7 Assay system from Promega (Madison, Wis.).

LLC cancer cells = test: Metastatic activity in LLC mouse model; format: in vivo; details: daily ip
Description: Thirty C57BL/6 mice will be implanted with 7.5×10^5 LLC cancer cells/animal. Seven days after implantation, 5M/5F per group will be treated daily ip for 25 days with dosing vehicle (DMSO), AGX51, AGX-A, or a compound of the present technology. Fourteen days after implantation, another group of 5M/5F animals will be treated daily ip for 18 days with 50 mg/kg of AGX51, another group of 5M/5F animals will be treated daily ip for 18 days with 50 mg/kg of AGX-A, and another group of 5M/5F animals will be treated daily ip for 18 days with a compound of the present technology. Tumors will be measured three times from Day 7 to 14. On Day 14, the tumors will be excised. The animals will be necropsied for the presence of lung metastases on day 32, 18 days post excision.

cells = test: Cell killing / cell viability assay; format: cell-based
Description: Cell viability assays. Cell lines will be seeded in a 96 well plate (5000 cells per well). After overnight incubation, cells will be treated with a compound of the present technology and incubated for 24 hours then MTT reagent (5 mg/mL) will be added per well and the cells will be incubated for four hours. Following incubation, media will be aspirated and 200 μL DMSO will be added per well. Absorbance will then be measured at 570 nm using a plate reader (Synergy 2, BioTek). Cell growth profiles will be determined by seeding 38,000 cells in a 24-well plate, in triplicate for each time point, and counting the cells on days 1, 3 and 5 after seeding, using trypan blue exclusion of dead cells.

ID1 = biological target: T1, ID1 (Homo sapiens, UniProt P41134); test: Activity against ID1 in cells (Western Blot); format: cell-based
T1 construct: endogenous in cells
T1 sequence (P41134 1-155): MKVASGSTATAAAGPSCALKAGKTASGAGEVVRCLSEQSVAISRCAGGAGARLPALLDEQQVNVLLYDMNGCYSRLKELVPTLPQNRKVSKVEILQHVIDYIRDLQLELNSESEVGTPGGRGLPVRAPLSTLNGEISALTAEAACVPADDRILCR

[2] = tested on: cholangiocarcinoma PDX RomeP_PHCH_X_0008a; test: Murine patient-derived xenograft model of cholangiocarcinoma, tumor volume; format: in vivo, mouse; details: NSG mice, 50 or 100 mg/kg p.o. BIDx5 x 4 weeks
Description: An animal model of cholangiocarcinoma predictive of anti-cholangiocarcinoma drug efficacy in humans, as described in Mattar, M. et al. Establishing and Maintaining an Extensive Library of Patient-Derived Xenograft Models. Front Oncol. 2018 Feb.
• Mice: NSG females, 6-8 weeks old • PDX: RomeP_PHCH_X_0008a, serially transplanted sc with matrigel • Treatment Groups (at least 5 animals/group): treatments started when tumors reached 100 mm^3 (“Day 0” for each animal), dosed via oral gavage • Group 1. Saline with 10% by weight 2-hydroxypropyl-β-cyclodextrin (“Vehicle”), p.o. twice daily for 5 days per week (“BIDx5”) for 4 weeks (“×4 weeks”) • Group 2. AGX-A 50 mg/kg in Vehicle, p.o. BIDx5×4 weeks • Group 3. AGX-A 100 mg/kg in Vehicle, p.o. BIDx5×4 weeks • Group 4. AGX-502 50 mg/kg in Vehicle, p.o. BIDx5×4 weeks • Group 5. AGX-502 100 mg/kg in Vehicle, p.o. BIDx5×4 weeks.
Tumor volumes, weights, and clinical signs were monitored a minimum of twice per week for each animal in each group throughout the study. Mice were sacrificed by CO2 asphyxiation once the tumor volume exceeded 2000 mm^3 or body weight loss was higher than 10%. Upon completion of the experiment, tumors were harvested and processed for immunoblotting and/or immunohistochemistry assays.

| activity against ID1 in cells (ID1) | activity by Western Blot (ID1) | Compound | protection from new blood vessel formation [1] | presence of endothelial cells in Matrigel plugs [1] | outcome of treatment of DU145 cells (DU145 cells) | effect on DU145 cells (health, proliferation) (DU145 cells) | lung metastases (LLC cancer cells) | activity by cell killing (cells) | time to complete cell killing (cells) | IC50 (24 h) (cells; 24 h, initial testing) | anti-cancer efficacy (tumor volume) [2] |
| --- | --- | --- | --- | --- | --- | --- | --- | --- | --- | --- | --- |
| – | – | CCC(=O)N(CCC(c1ccc2c(c1)OCO2)c1ccccc1OC)Cc1ccccc1 (racemic) [AGX51, N-(3-(benzo[d][1,3]dioxol-5-yl)-3-(2-methoxyphenyl)propyl)-N-benzylpropionamide] | significant protection | significantly decrease | cell death | pronounced effect | profoundly diminish | – | – | – | – |
| significant activity | very active | COc1ccccc1C(CCNC(C)c1ccccc1)c1ccc(OC(C)C)cc1 (centres unmarked) [AGX-502] | – | – | – | – | – | very active | ≤ 8 h | significantly favorable | dose-dependent anti-cancer efficacy |
| – | – | COc1ccccc1C(CCNCc1ccccc1)c1ccc(OC(C)C)cc1 (centres unmarked) [AGX-A, N-benzyl-3-(4-isopropoxyphenyl)-3-(2-methoxyphenyl)propan-1-amine] | significant protection | significantly decrease | cell death | pronounced effect | profoundly diminish | – | ≤ 24 h | – | – |
